# Laboratory results: patent US20220274983A1, “JAK KINASE INHIBITOR AND USE THEREOF” (JIANGSU CAREPHAR PHARMACEUTICAL CO., LTD., priority 2019, published 2022)
# Counter-ions that a name gives are not always drawn.
# Experiments:
# JAK3 = target: T1, JAK3 (Homo sapiens, UniProt P52333); assay: JAK kinase inhibitory activity, HTRF biochemical assay
# T1 sequence (P52333 1-1124): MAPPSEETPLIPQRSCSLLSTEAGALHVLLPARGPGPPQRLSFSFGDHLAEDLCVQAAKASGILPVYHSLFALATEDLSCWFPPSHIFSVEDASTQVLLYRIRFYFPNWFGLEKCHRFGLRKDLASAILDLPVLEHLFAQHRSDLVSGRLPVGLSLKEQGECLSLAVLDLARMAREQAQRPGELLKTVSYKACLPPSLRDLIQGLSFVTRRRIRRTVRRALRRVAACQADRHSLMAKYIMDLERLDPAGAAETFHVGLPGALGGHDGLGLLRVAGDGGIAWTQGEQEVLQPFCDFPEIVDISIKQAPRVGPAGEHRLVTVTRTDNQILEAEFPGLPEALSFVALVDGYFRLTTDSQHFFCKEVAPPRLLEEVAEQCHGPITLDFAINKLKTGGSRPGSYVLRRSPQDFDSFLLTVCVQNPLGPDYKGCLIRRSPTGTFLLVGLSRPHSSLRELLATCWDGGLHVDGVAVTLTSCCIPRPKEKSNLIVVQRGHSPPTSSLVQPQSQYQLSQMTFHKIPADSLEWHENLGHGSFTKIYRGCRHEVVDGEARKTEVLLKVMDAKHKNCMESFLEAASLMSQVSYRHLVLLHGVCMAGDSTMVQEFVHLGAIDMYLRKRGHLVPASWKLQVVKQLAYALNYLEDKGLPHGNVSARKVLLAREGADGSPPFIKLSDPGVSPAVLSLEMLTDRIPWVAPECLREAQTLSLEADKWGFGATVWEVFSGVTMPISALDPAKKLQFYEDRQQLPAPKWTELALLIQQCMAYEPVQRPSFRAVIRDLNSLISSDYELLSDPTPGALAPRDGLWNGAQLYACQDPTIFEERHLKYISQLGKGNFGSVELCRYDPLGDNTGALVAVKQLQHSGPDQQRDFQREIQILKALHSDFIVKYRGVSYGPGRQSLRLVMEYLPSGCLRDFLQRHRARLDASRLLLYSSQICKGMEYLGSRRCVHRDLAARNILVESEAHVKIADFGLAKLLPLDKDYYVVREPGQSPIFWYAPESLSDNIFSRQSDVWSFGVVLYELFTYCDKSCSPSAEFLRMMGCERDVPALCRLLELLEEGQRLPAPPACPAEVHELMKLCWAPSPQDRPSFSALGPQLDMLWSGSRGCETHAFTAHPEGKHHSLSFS
# Description: (§1) The compounds of the above embodiments were applied to the detection and screening of JAK kinase inhibitory activity.
# (§2) A corresponding volume of DMSO was added to each well of a first 96-well plate. 20-30 μL of 100-200 μM stock solution of different test compounds were added to each well. The mixture was shaken and mixed for 3 min. All of the compounds were subjected to 3× serial dilution. 60-80 μL Kinase buffer was added to each well of a second 96-well plate, and 1-2 μL of the solution taken from each well of the first 96-well plate was added to the corresponding well of the second 96-well plate. The mixture was shaken and mixed for 3 min. 5 μL of compound dilution taken from each well of the second compound dilution plate was transferred to the corresponding well of a 384-well test plate. 1-2 μL TK Substrate-biotin was added to each well of the test plate. 1-2 μL of enzyme mixture was added to each well. At the same time, a blank well without enzyme was set. 1-2 μL of ATP solution was added to each well, the plate was sealed and reacted at room temperature. The reaction time was as follows: JAK1: 2 h, JAK2: 30 min, JAK3: 30 min, and TYK2: 50 min. 3-5 μL of Streptavidin-XL665 and 3-5 μL of TK Antibody-cryptate were added to each well, the plate was sealed and allowed to stand at room temperature for 30 min to complete the reaction.
# (§3) The percentage of inhibition was calculated based on the following formula:
# (§4) Inhibition %=[(Ratiomax−Ratiocompound)/(Ratiomax−Ratiomin)]×100%
# (§5) Ratiocompound is the HTRF ratio at a given compound concentration, Ratiomin is the HTRF ratio added to the blank well, and Ratiomax is the HTRF ratio without adding the compound. GraphPad Prism 5.0 software was used to plot a sigmoid dose-inhibition rate curve with a non-linear regression model and calculate the IC50 value.
# JAK1 = JAK1 (Homo sapiens, UniProt P23458); assay: as above
# Description: as §1, §2, §3, §4, §5
# JAK2 = JAK2 (Homo sapiens, UniProt O60674); assay: as above
# Description: as §1, §2, §3, §4, §5
# TYK2 = TYK2 (Homo sapiens, UniProt P29597); assay: as above
# Description: as §1, §2, §3, §4, §5
# Hela cells = assay: Proliferation inhibition based on Hela cells (OSM stimulation, CTG); type: cell-based; details: Homo sapiens, read-out: IC50 (uM), proliferation inhibitory activity on Hela cells
# Description: (§6) 1. Cell plating: cultured cells were collected and counted for viable cells with Vi-Cell XR cell counter. The cell suspension was adjusted to an appropriate concentration with the medium and then added to a 96-well cell culture plate. 50 μL-100 μL of the cell suspension was added to each well of the 96-well cell culture plate. The cell plating density depended on the growth rate of the cells. The cells were cultured in corresponding incubators.
# 2. Drug Treatment and OSM Stimulation
# (§7) Firstly, a series of test compound concentration (work solution-1) was prepared using DMSO with 3× gradient dilution, and then it was subjected to fold dilution with RPMI1640+10% FBS to obtain a work solution-2; Cisplatin's work solution-2 was prepared with RPMI1640+10% FBS, and then 1-10 μL solution taken from the work solution-2 was added to the prepared cell wells containing medium. After incubation, 1-10 μL of OSM medium was added to each well and continued to culture. An appropriate CTG solution was added to each well. The mixture was shaken and mixed for 1-5 min and then a luminescence signal was determined with an Envision2104 plate reader.
# (§8) Cell Survival Rate Calculation
# (§9) T is the luminescence reading of a drug treatment group, and C is the average luminescence reading of a solvent control group.
# THP1 cells = assay: Proliferation inhibition based on THP1 cells (IL-4 stimulation, CTG); type: cell-based; details: Homo sapiens, THP-1, read-out: IC50 (uM), proliferation inhibitory activity on THP1 cells
# Description: as §6, with “80” for “50 μL-100”
# as §7, with “2. Drug treatment and IL-4 stimulation: firstly,” for “Firstly,”, “medium. The cells were cultured in the corresponding incubators.” for “medium.”, “IL-4” for “OSM”, “well.” for “well. The mixture was shaken and mixed for 1-5 min and then a luminescence signal was determined with an Envision2104 plate reader.”
# Cell Survial Rate Calculation
# as §9
# Pharmacokinetic study = type: in vivo; details: rat, plasma; rats, oral, 1-10 mg/kg
# Description: For the intravenous route and the oral route, the compound was formulated in an aqueous solution containing 5% DMSO+95% hydroxypropyl-β-cyclodextrin. Test animals were administered orally at 1-10 mg/kg and intravenously at 1-5 mg/kg. Each group included 3 rats. About 0.2 mL of blood was collected by jugular vein puncture with heparin sodium anticoagulant at the following time points: 0.083 h, 0.25 h, 0.5 h, 1 h, 2 h, 4 h, 6 h, 8 h, 10 h and 24 h. Plasma was separated by centrifugation at 5000-13000 rpm for 10 min within 1 hour after collecting the blood sample, and the plasma sample was analyzed on LC-MS/MS.
# The pharmacokinetic parameters were calculated using Phoenix WinNonlin 7.0 based on blood drug concentration data at different time points to provide parameters such as AUC0-t, AUC0-∞, MRT0-∞, Cmax, Tmax, and T1/2.
# rat CIA model [1] = assay: Hindfoot foot volume in rat CIA model; type: in vivo, Lewis rats; details: CIA rats, hindfoot
# Description: (§10) Lewis rats (female, 10-12 weeks old) were obtained from Beijing Vital River Laboratory Animal Technology Co., Ltd. The rats were on a light and dark alternation for 12 h, and the environment was kept at a temperature of 23±2° C. and a humidity of 40-70%.
# (§11) Type II collagen solution (2 mg/mL) was prepared with 0.05 M acetic acid solution to allow to be fully dissolved, and placed overnight in the dark at 4° C. During the test, 2 mg/mL type II collagen (C II) solution and 4 mg/mL complete Freund's adjuvant (CFA) solution were mixed in equal volumes under ice bath conditions to fully emulsify. On day 0, an emulsion prepared by mixing equal volumes of C II (2 mg/mL) and CFA (4 mg/mL) was injected intracutaneously into the base of the tail of experimental rats for primary immunization, and on day 7, secondary booster immunization was performed.
# (§12) The therapeutic effect of the test compound was tested in a rat CIA model. The rats were randomly divided into groups with 8 animals in each group. All animals were immunized on day 0 and boosted on day 7.
# (§13) Therefore, the differences in body weight and foot volume after the onset of arthritis compared with the negative group, respectively, can be used to evaluate the therapeutic effect in the rat model. The experimental data were expressed as Mean±SEM; the data between the two groups was tested by unpaired t-test and p<0.05 was considered as a significant difference.
# BaF3 cells = assay: Proliferation inhibition based on BaF3 cells (IL-3 medium, CTG); type: cell-based; details: Mus musculus, medium containing IL-3, read-out: IC50 (uM), proliferation inhibitory activity on BaF3 cells
# Description: 1. Cell plating: cultured cells were collected with RPMI1640+10% FBS (containing IL-3) medium and counted for viable cells with Vi-Cell XR cell counter. The cell suspension was adjusted to an appropriate concentration with RPMI1640+10% FBS (containing IL-3) medium and then added to a 96-well cell culture plate. A certain amount of cell suspension was added to each well of the 96-well cell culture plate. The cells were cultured in corresponding incubators.
# 2. Drug treatment: a series of test compound concentration (work solution-1) was prepared using DMSO with 3× gradient dilution, and then it was subjected to fold dilution with RPMI1640+10% FBS (containing IL-3) to obtain a work solution-2; Cisplatin's work solution-2 was prepared with RPMI1640+10% FBS (containing IL-3), and then 1-10 μL solution taken from the work solution-2 was added to the prepared cell wells containing medium. The cells were cultured in the corresponding incubators. An appropriate CTG solution was added to each well.
# as §8, §9
# [2] = rat, in vivo, 2 mg/kg
# Description: as §10, §11, §12, §13
# rat CIA model [3] = assay: Arthritis index (AI) of extremities in rat CIA model; details: CIA rats, 2 mg/kg oral gavage once daily for 2 w, score 0-16;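 note: rats immunized with type II collagen plus complete Freund's adjuvant on day 0, boosted day 7, groups of 8, each paw graded 0-4 for swelling or redness, higher means worse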
# Description: as §10, §11, §12
# Foot volume was scored for the swelling of four toes at the same time, the score for each foot was 0-4, and the highest score for each rat was 16. 0—no swelling, normal appearance; 1—mild swelling or redness of the ankle joint, wrist joint or finger joint; 2—moderate swelling or redness of the ankle joint, wrist joint or finger joint; 3—severe swelling or redness of the ankle joint, wrist joint or finger joint; 4—very severe swelling or redness of the ankle joint, wrist joint or finger joint.
# Sequence of JAK1 (P23458 whole entry, species assumed): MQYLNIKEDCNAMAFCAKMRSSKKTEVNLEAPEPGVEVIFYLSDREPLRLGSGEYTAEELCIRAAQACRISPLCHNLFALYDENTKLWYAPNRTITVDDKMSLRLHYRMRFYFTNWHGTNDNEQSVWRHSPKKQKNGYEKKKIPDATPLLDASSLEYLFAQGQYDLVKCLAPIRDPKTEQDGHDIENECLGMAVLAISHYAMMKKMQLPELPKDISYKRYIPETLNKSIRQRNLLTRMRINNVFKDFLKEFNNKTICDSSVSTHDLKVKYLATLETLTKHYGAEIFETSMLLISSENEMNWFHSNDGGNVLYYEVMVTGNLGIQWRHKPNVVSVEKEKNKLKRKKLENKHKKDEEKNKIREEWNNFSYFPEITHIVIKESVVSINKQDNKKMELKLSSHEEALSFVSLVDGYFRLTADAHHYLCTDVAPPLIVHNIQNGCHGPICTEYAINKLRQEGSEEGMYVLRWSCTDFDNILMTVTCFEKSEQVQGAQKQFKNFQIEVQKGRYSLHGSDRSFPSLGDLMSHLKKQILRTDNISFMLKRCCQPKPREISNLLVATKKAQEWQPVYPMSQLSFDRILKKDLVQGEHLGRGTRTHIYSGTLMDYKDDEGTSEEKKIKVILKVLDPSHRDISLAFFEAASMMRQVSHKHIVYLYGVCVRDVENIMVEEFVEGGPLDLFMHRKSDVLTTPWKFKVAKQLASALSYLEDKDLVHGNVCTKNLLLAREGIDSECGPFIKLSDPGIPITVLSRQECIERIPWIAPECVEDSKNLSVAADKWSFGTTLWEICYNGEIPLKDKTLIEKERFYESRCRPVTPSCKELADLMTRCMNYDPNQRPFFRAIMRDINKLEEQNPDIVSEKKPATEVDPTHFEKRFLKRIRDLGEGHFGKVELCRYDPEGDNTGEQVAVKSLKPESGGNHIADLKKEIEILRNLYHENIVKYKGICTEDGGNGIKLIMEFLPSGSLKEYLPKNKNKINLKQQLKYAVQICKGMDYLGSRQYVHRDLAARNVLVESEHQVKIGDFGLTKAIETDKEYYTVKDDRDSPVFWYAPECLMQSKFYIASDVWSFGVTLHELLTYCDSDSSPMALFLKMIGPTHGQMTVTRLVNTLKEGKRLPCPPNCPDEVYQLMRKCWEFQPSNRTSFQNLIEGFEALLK
# Sequence of JAK2 (O60674 whole entry, species assumed): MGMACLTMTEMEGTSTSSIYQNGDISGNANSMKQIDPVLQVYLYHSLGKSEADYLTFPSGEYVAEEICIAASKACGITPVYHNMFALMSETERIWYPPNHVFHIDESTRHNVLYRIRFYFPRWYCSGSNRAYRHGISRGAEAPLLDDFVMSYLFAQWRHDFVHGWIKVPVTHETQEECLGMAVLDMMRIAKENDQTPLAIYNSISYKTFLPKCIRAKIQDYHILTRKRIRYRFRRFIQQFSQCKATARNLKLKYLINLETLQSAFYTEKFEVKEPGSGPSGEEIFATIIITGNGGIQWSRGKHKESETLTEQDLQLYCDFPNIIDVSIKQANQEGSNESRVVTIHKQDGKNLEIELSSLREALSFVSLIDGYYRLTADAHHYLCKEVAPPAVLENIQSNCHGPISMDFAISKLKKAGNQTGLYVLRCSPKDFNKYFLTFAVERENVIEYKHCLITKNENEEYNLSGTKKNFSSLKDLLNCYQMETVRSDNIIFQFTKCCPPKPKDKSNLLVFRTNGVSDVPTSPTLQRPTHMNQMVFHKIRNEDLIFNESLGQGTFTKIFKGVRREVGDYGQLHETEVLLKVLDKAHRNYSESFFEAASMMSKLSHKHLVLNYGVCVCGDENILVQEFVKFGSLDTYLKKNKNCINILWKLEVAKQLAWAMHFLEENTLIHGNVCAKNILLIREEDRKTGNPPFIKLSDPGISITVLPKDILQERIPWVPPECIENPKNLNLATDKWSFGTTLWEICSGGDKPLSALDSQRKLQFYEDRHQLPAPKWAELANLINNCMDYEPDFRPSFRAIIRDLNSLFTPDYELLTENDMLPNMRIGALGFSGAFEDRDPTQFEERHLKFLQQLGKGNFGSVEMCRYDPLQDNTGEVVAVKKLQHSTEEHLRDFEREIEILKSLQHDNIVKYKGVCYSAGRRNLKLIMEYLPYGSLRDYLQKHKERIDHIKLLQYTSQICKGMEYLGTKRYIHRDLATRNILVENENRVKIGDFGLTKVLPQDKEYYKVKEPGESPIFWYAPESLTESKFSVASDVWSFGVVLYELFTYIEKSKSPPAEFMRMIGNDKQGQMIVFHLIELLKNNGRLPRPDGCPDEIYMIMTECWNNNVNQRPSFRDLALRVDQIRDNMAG
# Sequence of TYK2 (P29597 whole entry, species assumed): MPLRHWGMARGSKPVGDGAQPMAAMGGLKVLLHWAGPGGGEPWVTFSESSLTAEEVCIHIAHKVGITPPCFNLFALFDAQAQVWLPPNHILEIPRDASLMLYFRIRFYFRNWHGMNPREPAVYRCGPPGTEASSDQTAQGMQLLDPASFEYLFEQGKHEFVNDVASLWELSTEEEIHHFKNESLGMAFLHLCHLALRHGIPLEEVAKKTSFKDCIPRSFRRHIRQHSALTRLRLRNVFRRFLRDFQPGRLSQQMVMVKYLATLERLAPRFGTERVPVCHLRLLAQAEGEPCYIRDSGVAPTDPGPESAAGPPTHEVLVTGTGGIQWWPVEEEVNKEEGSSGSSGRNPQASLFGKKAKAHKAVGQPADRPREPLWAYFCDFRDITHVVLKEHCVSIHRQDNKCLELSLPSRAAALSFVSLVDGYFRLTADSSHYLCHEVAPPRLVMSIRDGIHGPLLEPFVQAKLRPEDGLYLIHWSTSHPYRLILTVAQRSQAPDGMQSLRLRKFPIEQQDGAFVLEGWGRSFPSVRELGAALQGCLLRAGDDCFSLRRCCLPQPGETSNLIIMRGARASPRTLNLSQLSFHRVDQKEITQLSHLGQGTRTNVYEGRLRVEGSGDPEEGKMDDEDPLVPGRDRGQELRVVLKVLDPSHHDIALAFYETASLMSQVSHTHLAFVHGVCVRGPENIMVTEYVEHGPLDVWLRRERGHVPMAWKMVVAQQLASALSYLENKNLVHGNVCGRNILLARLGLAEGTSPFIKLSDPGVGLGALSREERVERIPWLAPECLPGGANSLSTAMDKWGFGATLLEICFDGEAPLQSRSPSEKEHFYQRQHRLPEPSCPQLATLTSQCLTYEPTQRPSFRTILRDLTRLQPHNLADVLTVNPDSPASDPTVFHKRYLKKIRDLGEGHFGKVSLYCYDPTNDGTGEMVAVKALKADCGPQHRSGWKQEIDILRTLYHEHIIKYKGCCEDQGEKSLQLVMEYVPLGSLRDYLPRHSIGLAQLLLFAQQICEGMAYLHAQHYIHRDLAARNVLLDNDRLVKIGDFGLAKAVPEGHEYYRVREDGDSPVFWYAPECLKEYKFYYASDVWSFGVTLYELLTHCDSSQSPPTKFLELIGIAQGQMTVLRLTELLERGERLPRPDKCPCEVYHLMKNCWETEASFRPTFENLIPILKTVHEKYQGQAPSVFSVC
structure (smiles),measurement,setting,value
O=C(Nc1nc2cccc(-c3ccc(CN4CCS(=O)(=O)CC4)s3)n2n1)[C@H]1C[C@@H]1F [EXP-6],IC50,JAK3,> 500 nM
same,IC50,JAK1,50 to 500 nM
same,IC50,JAK2,50 to 500 nM
same,IC50,TYK2,> 500 nM
"O=C(Nc1nc2cccc(-c3ccc(CN4CCS(=O)(=O)CC4)cc3)n2n1)C1CC1 [Filgotinib, reference compound]",IC50,Hela cells,5 to 30 µM
same,IC50,THP1 cells,5 to 30 µM
same,AUC,Pharmacokinetic study,2850 ng·h/mL
same,Cmax,Pharmacokinetic study,426 ng/mL
same,half-life,Pharmacokinetic study,3.9 h
same,Foot volume (ml)/Day,"rat CIA model [1]; 10 mg/kg oral gavage once daily for 2 w, day 0",2.597 ± 0.014 mL
same,Foot volume (ml)/Day,"rat CIA model [1]; 10 mg/kg oral gavage once daily for 2 w, day 8",2.589 ± 0.020 mL
same,Foot volume (ml)/Day,"rat CIA model [1]; 10 mg/kg oral gavage once daily for 2 w, day 11",2.700 ± 0.090 mL
same,Foot volume (ml)/Day,"rat CIA model [1]; 10 mg/kg oral gavage once daily for 2 w, day 14",3.644 ± 0.330 mL
same,Foot volume (ml)/Day,"rat CIA model [1]; 10 mg/kg oral gavage once daily for 2 w, day 17",4.702 ± 0.255 mL
same,Foot volume (ml)/Day,"rat CIA model [1]; 10 mg/kg oral gavage once daily for 2 w, day 21",4.829 mL
same,Foot volume (ml)/Day,"rat CIA model [1]; 10 mg/kg oral gavage once daily for 2 w, day 24",4.769 mL
same,Foot volume (ml)/Day,"rat CIA model [1]; 10 mg/kg oral gavage once daily for 2 w, day 28",4.363 mL
same,IC50,BaF3 cells,5 to 30 µM
"C[C@@H]1CCN(C(=O)CC#N)C[C@@H]1N(C)c1ncnc2[nH]ccc12 [Tofacitinib, tofacitinib citrate, reference compound]",Foot volume (ml)/Day,"rat CIA model [1]; 2 mg/kg oral gavage once daily for 2 w, day 0",2.637 ± 0.020 mL
same,Foot volume (ml)/Day,"rat CIA model [1]; 2 mg/kg oral gavage once daily for 2 w, day 8",2.619 ± 0.019 mL
same,Foot volume (ml)/Day,"rat CIA model [1]; 2 mg/kg oral gavage once daily for 2 w, day 11",2.646 ± 0.045 mL
same,Foot volume (ml)/Day,"rat CIA model [1]; 2 mg/kg oral gavage once daily for 2 w, day 14",3.848 ± 0.333 mL
same,Foot volume (ml)/Day,"rat CIA model [1]; 2 mg/kg oral gavage once daily for 2 w, day 17",4.636 ± 0.306 mL
same,Foot volume (ml)/Day,"rat CIA model [1]; 2 mg/kg oral gavage once daily for 2 w, day 21",4.710 mL
same,Foot volume (ml)/Day,"rat CIA model [1]; 2 mg/kg oral gavage once daily for 2 w, day 24",4.509 mL
same,Foot volume (ml)/Day,"rat CIA model [1]; 2 mg/kg oral gavage once daily for 2 w, day 28",4.125 mL
same,"body weight course, in words",[2],"increased slightly on days 11-17, but then fell back"
same,Arthritis index/Day,rat CIA model [3]; day 0,0 ± 0
same,Arthritis index/Day,rat CIA model [3]; day 8,0 ± 0
same,Arthritis index/Day,rat CIA model [3]; day 11,0.63 ± 0.32
same,Arthritis index/Day,rat CIA model [3]; day 14,3.75 ± 0.77
same,Arthritis index/Day,rat CIA model [3]; day 17,5.25 ± 0.62
same,Arthritis index/Day,rat CIA model [3]; day 21,8.75 ± 0.59
same,Arthritis index/Day,rat CIA model [3]; day 24,8.75 ± 0.73
same,Arthritis index/Day,rat CIA model [3]; day 28,7.88 ± 0.58
